# From patent publication US20040121946A9, “Inducing cellular immune responses to her2/neu using peptide and nucleic acid compositions” (priority 2002, published 2004)
# pIC50: −log10 of the molar value.
# Assays:
# [1] = target: DRB1*0101 (DR1) (Homo sapiens, UniProt P01903+P01911, A100R/D57E/F55L/F60I/F76Y/I96L/L162R/M171V/P40L/Q125E/R42F/V115G/Y59C); experiment: HLA class II peptide binding assay, purified HLA; conditions: unit not given
# [2] = target: DRB1*0301 (DR3) (Homo sapiens, UniProt P01903+P01911, A100K/A102G/A103R/A169T/F55Y/I96L/K41T/L162R/M171V/P40S/Q125H/Q178H/Q39Y/R42S/S66N/T106N/T262R/W38E/Y61H); experiment: HLA class II peptide binding assay, purified HLA; conditions: unit not given
# [3] = target: DRB1*0401 (DR4w4) (Homo sapiens, UniProt P01903+P01911, A100K/A169T/F76Y/I96L/K127E/L162R/M171V/N62H/P40V/Q125Y/R42H/S133A/S149N/S66Y/V115G/V209L/W38E); experiment: HLA class II peptide binding assay, purified HLA; conditions: unit not given
# [4] = target: DRB1*0701 (DR7) (Homo sapiens, UniProt P01903+P01911, A100R/A102G/A103Q/D57E/D86V/E43K/F76Y/K127E/L162R/M171V/P40G/Q125H/Q99D/R33Q/R42Y/R54Q/S133A/S66F/T210M/V115G/Y107V/Y59L/Y89S); experiment: HLA class II peptide binding assay, purified HLA; conditions: unit not given
# [5] = target: DRB1*0802 (DR8w2) (Homo sapiens, UniProt P01903+P01911, A100R/A103L/A169T/F76Y/H45Y/I96F/K41T/L162R/M171V/P40S/Q125H/Q178H/Q39Y/Q99D/R218S/R42G/S66Y/V115G/W38E); experiment: HLA class II peptide binding assay, purified HLA; conditions: for DR8w2 binding data: unit not given
# [6] = target: DRB1*1101 (DR5w11) (Homo sapiens, UniProt P01903+P01911, A100R/A169T/A87E/I96F/K41T/L162R/M171V/P40S/Q125H/Q178H/Q39Y/Q99D/R42S/S66Y/T262R/V115G/W38E); experiment: HLA class II peptide binding assay, purified HLA; conditions: for DR5w11 binding data: unit not given
# [7] = target: DRB1*1302 (DR6w19) (Homo sapiens, UniProt P01903+P01911, A100E/A169T/K41T/L162R/M171V/P40S/Q125H/Q178H/Q39Y/Q99D/R42S/S66N/T262R/V115G/W38E/Y61H); experiment: HLA class II peptide binding assay, purified HLA; conditions: for DR6w19 binding data: unit not given
# [8] = target: DRB1*1501 (DR2w2β1) (Homo sapiens, UniProt P01903+P01911); experiment: HLA class II peptide binding assay, purified HLA; conditions: for DR2wB1 binding data: Table XIX, DR supermotif peptides
# [9] = target: DRB5*0101 (DR2w2β2) (Homo sapiens, UniProt P01903+Q30154); experiment: HLA class II peptide binding assay, purified HLA; conditions: unit not given
# [10] = test system: HLA-DR molecules (DR1, DR4w4, DR7, DRB5*0101, DRB1*1501, DRB1*1101, DRB1*0802, DRB1*1302); experiment: DR supertype cross-reactive binding; parameters: species or system human; conditions: for DR147 Binding / DR147 Cross-binding: number of DR1, DR4w4, DR7 bound; for DR147 Binding: Table XXIX; for DR147 Cross-binding: Table XXVIII; for Broad Binding (5/8): number of the 8 DR alleles bound; for No. of DR Alleles Crossbound: Table XXXI
# [11] = Table XIX, DR supermotif peptides
# [12] = Table XXa, DR 3a motif peptides
SMILES,"DR1 binding data [1, 11]","DR3 binding data [2, 11]","DR4w4 binding data [3, 11]","DR7 binding data [4, 11]","DR8w2 binding data [5, 11]","DR5w11 binding data [6, 11]","DR6w19 binding data [7, 11]",DR2wB1 binding data ([8]; unit not given),"DR2w2B2 binding data [9, 11]",DR147 Binding [10],DR147 Cross-binding [10],Broad Binding (5/8) [10],No. of DR Alleles Crossbound [10],other results
CC[C@H](C)[C@H](NC(=O)[C@H](CCCCN)NC(=O)[C@H](CCCCN)NC(=O)[C@@H](N)CS)C(=O)N[C@@H](Cc1ccccc1)C(=O)NCC(=O)N[C@@H](CO)C(=O)N[C@@H](CC(C)C)C(=O)N[C@@H](C)C(=O)N[C@@H](Cc1ccccc1)C(=O)N[C@@H](CC(C)C)C(=O)N1CCC[C@H]1C(=O)N[C@@H](CCC(=O)O)C(=O)N[C@@H](CO)C(=O)N[C@@H](Cc1ccccc1)C(=O)O,0.2400,0.0010,−0.0025,0.0270,−0.0004,−0.0005,0.0034,0.0070,0.0016,2,2,2,–,"pIC50 ([8]; Table XXIX, read-out: DR2w2β1 nM): 5.89"
CC[C@H](C)[C@H](NC(=O)[C@H](CCCNC(=N)N)NC(=O)CNC(=O)[C@H](CCCNC(=N)N)NC(=O)[C@@H](NC(=O)[C@@H](NC(=O)[C@H](CCC(N)=O)NC(=O)[C@H](CC(C)C)NC(=O)[C@H](CC(N)=O)NC(=O)[C@H](CCC(N)=O)NC(=O)[C@H](Cc1ccccc1)NC(=O)[C@@H](NC(=O)[C@H](CO)NC(=O)[C@@H](N)CC(C)C)C(C)C)C(C)C)[C@@H](C)CC)C(=O)N[C@@H](CC(C)C)C(=O)O,0.1800,0.0010,0.0670,0.2900,0.0330,0.0100,0.0057,0.0280,0.0740,3,3,6,–,–
CC(C)C[C@H](NC(=O)[C@H](CO)NC(=O)[C@H](C)NC(=O)[C@H](CC(N)=O)NC(=O)[C@@H](NC(=O)[C@@H]1CCCN1C(=O)[C@H](CC(C)C)NC(=O)[C@H](Cc1ccc(O)cc1)NC(=O)[C@@H](NC(=O)[C@@H](N)CC(C)C)[C@@H](C)O)[C@@H](C)O)C(=O)N[C@@H](CO)C(=O)N[C@@H](Cc1ccccc1)C(=O)N[C@@H](CC(C)C)C(=O)N[C@@H](CCC(N)=O)C(=O)N[C@@H](CC(=O)O)C(=O)O,0.4900,0.0150,0.3300,0.3200,0.0054,0.0041,0.0280,0.0100,0.0560,3,3,6,–,–
CC(C)C[C@H](NC(=O)[C@H](CO)NC(=O)[C@H](C)NC(=O)[C@H](CC(N)=O)NC(=O)[C@@H](NC(=O)[C@@H]1CCCN1C(=O)[C@H](CC(C)C)NC(=O)[C@H](Cc1ccc(O)cc1)NC(=O)[C@@H](NC(=O)[C@H](CC(C)C)NC(=O)[C@H](CCC(=O)O)NC(=O)[C@H](CC(C)C)NC(=O)[C@@H](N)CC(N)=O)[C@@H](C)O)[C@@H](C)O)C(=O)N[C@@H](CO)C(=O)N[C@@H](Cc1ccccc1)C(=O)O,0.4700,0.0010,0.3800,0.0680,0.0220,0.0050,0.0017,0.0280,0.0090,3,3,4,–,–
CC[C@H](C)[C@H](NC(=O)[C@H](CCSC)NC(=O)[C@H](Cc1ccc(O)cc1)NC(=O)[C@@H](NC(=O)[C@H](CC(=O)O)NC(=O)[C@@H](NC(=O)[C@@H](NC(=O)[C@H](CS)NC(=O)[C@@H](NC(=O)[C@@H]1CCCN1C(=O)[C@@H]1CCCN1C(=O)[C@@H](N)CCC(N)=O)[C@@H](C)CC)[C@@H](C)O)[C@@H](C)CC)C(C)C)C(=O)N[C@@H](CCSC)C(=O)N[C@H](C(=O)N[C@@H](CCCCN)C(=O)O)C(C)C,0.0670,0.0976,0.0060,0.1000,0.0051,0.0046,0.0013,0.0540,0.0027,2,2,3,–,–
CC[C@H](C)[C@H](NC(=O)CNC(=O)[C@H](CC(C)C)NC(=O)[C@H](CC(C)C)NC(=O)[C@H](CCCNC(=N)N)NC(=O)[C@@H](N)CO)C(=O)N[C@@H](CS)C(=O)N[C@@H](CC(C)C)C(=O)N[C@H](C(=O)N[C@@H](CO)C(=O)N[C@H](C(=O)N[C@H](C(=O)N[C@@H](CCC(N)=O)C(=O)N[C@@H](CC(C)C)C(=O)N[C@H](C(=O)O)C(C)C)C(C)C)[C@@H](C)O)[C@@H](C)O,0.3500,0.0062,0.1200,0.5600,0.0009,0.0140,0.3400,0.0220,−0.0007,3,3,5,5,–
CC[C@H](C)[C@H](NC(=O)CNC(=O)[C@H](Cc1ccccc1)NC(=O)[C@@H](NC(=O)[C@@H](NC(=O)CNC(=O)[C@H](CC(C)C)NC(=O)[C@@H](N)C(C)C)C(C)C)C(C)C)C(=O)N[C@@H](CC(C)C)C(=O)N[C@H](C(=O)N[C@@H](CCCCN)C(=O)N[C@@H](CCCNC(=N)N)C(=O)N[C@@H](CCCNC(=N)N)C(=O)N[C@@H](CCC(N)=O)C(=O)N[C@@H](CCC(N)=O)C(=O)O)[C@@H](C)CC,0.0700,0.0021,0.0029,0.0320,0.6400,0.4700,0.0150,0.0110,0.0620,2,2,7,7,–
CC(C)C[C@H](NC(=O)[C@H](CC(=O)O)NC(=O)[C@H](CCCNC(=N)N)NC(=O)[C@H](Cc1c[nH]cn1)NC(=O)[C@@H](NC(=O)[C@H](CC(C)C)NC(=O)[C@H](CCCNC(=N)N)NC(=O)[C@@H](N)C(C)C)C(C)C)C(=O)N[C@@H](C)C(=O)N[C@@H](C)C(=O)N[C@@H](CCCNC(=N)N)C(=O)N[C@@H](CC(N)=O)C(=O)N[C@H](C(=O)N[C@@H](CC(C)C)C(=O)N[C@H](C(=O)O)C(C)C)C(C)C,0.0340,0.3400,0.0150,0.0230,0.1000,0.2700,0.0430,0.0064,0.0033,–,–,–,4,"DR1 binding data [1, 12]: 0.0340; DR3 binding data [2, 12]: 0.3400; DR4w4 binding data [3, 12]: 0.0150; DR7 binding data [4, 12]: 0.0230; pIC50 ([5]; Table XXXI): 6.31; DR8w2 binding data [5, 12]: 0.1000; pIC50 ([6]; Table XXXI): 7.13; DR5w11 binding data [6, 12]: 0.2700; pIC50 ([7]; Table XXXI): 7.09; DR6w19 binding data [7, 12]: 0.0430; DR2w2B1 binding data ([8]; Table XXa, DR 3a motif peptides, unit not given): 0.0064; DR2w2B2 binding data [9, 12]: 0.0033"
